Data published in ChEMBL document CHEMBL1156798, “Structural conservation in band 4.1, ezrin, radixin, moesin (FERM) domains as a guide to identify inhibitors of the proline-rich tyrosine kinase 2” (J Med Chem, 2010).
Activity calls are given as the source filed them.

Each compound was assayed against Protein-tyrosine kinase 2-beta (Homo sapiens) (UniProt Q14289) (assay: Inhibition of Pyk2-mediated stimulation of human SF767 glioma cell migration at 50 uM by radial migration assay relative to control). Conditions: not given.
Protein-tyrosine kinase 2-beta (Homo sapiens), sequence (Q14289 whole entry, looked up, the tested form may be a part): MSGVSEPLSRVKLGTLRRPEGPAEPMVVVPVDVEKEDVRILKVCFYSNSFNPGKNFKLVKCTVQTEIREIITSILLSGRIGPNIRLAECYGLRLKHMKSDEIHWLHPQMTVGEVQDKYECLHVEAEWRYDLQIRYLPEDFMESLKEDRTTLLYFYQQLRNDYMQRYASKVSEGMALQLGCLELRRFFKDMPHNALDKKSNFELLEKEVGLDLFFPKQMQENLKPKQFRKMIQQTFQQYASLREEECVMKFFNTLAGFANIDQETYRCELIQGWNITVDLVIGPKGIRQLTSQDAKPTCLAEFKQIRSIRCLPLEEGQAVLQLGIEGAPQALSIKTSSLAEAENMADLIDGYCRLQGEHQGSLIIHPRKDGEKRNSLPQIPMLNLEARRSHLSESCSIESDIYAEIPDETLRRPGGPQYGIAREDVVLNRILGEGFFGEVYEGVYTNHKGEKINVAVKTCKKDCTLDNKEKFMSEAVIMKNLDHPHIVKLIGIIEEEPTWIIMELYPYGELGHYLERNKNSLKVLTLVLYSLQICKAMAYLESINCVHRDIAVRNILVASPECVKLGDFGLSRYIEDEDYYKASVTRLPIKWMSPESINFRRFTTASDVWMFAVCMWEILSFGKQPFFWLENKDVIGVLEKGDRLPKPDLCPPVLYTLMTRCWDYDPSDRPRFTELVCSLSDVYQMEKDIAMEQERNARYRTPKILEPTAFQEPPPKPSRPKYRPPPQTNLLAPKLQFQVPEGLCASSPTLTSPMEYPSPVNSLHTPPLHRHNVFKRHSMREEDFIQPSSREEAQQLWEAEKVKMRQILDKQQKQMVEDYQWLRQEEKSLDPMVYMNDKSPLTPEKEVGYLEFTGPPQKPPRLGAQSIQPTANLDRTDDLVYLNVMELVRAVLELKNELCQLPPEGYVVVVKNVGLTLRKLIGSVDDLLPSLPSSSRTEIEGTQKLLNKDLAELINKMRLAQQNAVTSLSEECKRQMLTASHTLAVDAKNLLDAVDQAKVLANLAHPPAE
Compound `C=CCOC(=O)NCCSc1nc2ccc(NC(=O)c3csnn3)cc2s1` has an inhibition of 85%.

What follows are compounds tested against Protein-tyrosine kinase 2-beta (Homo sapiens) (UniProt Q14289) (assay: Binding affinity to human Pyk2 FERM domain by LC/MS depletion assay). Conditions: not given.
With `C=CCOC(=O)NCCSc1nc2ccc(NC(=O)c3csnn3)cc2s1` the Activity was “Active”.

Each compound was assayed against Protein-tyrosine kinase 2-beta (Homo sapiens) (UniProt Q14289) (assay: Inhibition of HA-epitope-tagged Pyk2 FERM domain expressed in HEK293 cells assessed as inhibition of binding to 12A10 antibody by ELISA). Conditions: not given.
Assay type: cell-based
Set-up: inhibition: concentration or dose not given beside the values
With `C=CCOC(=O)NCCSc1nc2ccc(NC(=O)C3(C#N)CC3)cc2s1` the Activity was “inactive”.
For `Cc1ccc(C(=O)NCCCn2ccnc2)c(C2CCN(C(=O)/C=C/c3cccc(O)c3)CC2)n1`, the Activity was “inactive”.
For `C=CCOC(=O)NCCSc1nc2ccc(NC(=O)c3ccccc3S(C)(=O)=O)cc2s1`, the Activity was “inactive”.
`COc1ccc(C(N)=O)cc1NC(=O)c1csc(C2CCN(C(=O)c3cc4ccccc4o3)CC2)n1` was tested, and the Activity was “inactive”.
For `C=CCOC(=O)NCCSc1nc2ccc(NC(=O)c3cc(C)n(C)n3)cc2s1`, the Activity was “inactive”.
With `Cc1cc(C)cc(NC(=O)N2CCC3(CCN(C(=O)CCCC[C@@H]4SC[C@@H]5NC(=O)N[C@@H]54)C3)CC2)c1` the Activity was “inactive”.
For `O=C(NNC(=O)c1n[nH]c2ccccc12)c1csc(C2CCN(C(=O)NCCC3=CCCCC3)CC2)n1`, the Activity was “inactive”.
For `O=C(CN1CCCN(C(=O)CNC(=O)C(F)(F)F)CC1)Nc1ccc(F)cc1F`, the Activity was “inactive”.
For `CC(=O)Nc1ccc(S(=O)(=O)NNC(=O)Nc2c(C(C)C)cccc2C(C)C)cc1Cl`, the Activity was “inactive”.
`CCCOCCNC(=O)c1ccc(C)nc1C1CCN(C(=O)c2cc(NC(C)=O)ccc2O)CC1` was tested, and the Activity was “inactive”.
For `COc1ccc(C(N)=O)cc1NC(=O)c1csc(C2CCN(C(=O)c3cnn(-c4ccccc4)c3C)CC2)n1`, the Activity was “inactive”.
With `C=CCOC(=O)NCCSc1nc2ccc(NC(=O)[C@H]3CCOC3)cc2s1` the Activity was “inactive”.
In the case of `O=C(N1CCc2ccc(S(=O)(=O)Nc3ccc(Cl)nn3)cc2C1)C(F)(F)F`, the Activity is reported as “inactive”.
In the case of `O=C(Nc1ccccc1N1CCOCC1)c1csc(C2CCN(C(=O)NCCC3=CCCCC3)CC2)n1`, the Activity is reported as “inactive”.
For `C=CCOC(=O)NCCSc1nc2ccc(NC(=O)C3CCN(C(=O)c4ccccc4)CC3)cc2s1`, the Activity was “inactive”.
With `COc1ccc(OC)c(NC(=S)NCC(=O)N[C@@H](CC(C)C)C(N)=O)c1` the Activity was “inactive”.
For `Cc1nc(C)c(C(=O)NNC(=O)c2csc(C3CCN(C(=O)Cc4c[nH]c5ccccc45)CC3)n2)s1`, the Activity was “inactive”.
In the case of `C=CCOC(=O)NCCSc1nc2ccc(NC(=O)c3coc4c3C(=O)CCC4)cc2s1`, the Activity is reported as “inactive”.
For `C=CCOC(=O)NCCSc1nc2ccc(NC(=O)Cc3ccc([N+](=O)[O-])cc3)cc2s1`, the Activity was “inactive”.
With `Cc1cc(NS(=O)(=O)c2ccc3c(c2)CN(C(=O)C(F)(F)F)CC3)nc(C)n1` the Activity was “inactive”.
With `Cc1ccc(C(=O)NCCc2cccs2)c(C2CCN(C(=O)c3nc4ccccc4nc3O)CC2)n1` the Activity was “inactive”.
`COC(=O)c1ccc(NS(=O)(=O)c2ccc(NC(C)=O)c(Cl)c2)cc1OC` was tested, and the Activity was “inactive”.
`CN(C)c1ccc(NC(=S)N2CCC(c3nc(C(=O)NC[C@H](c4ccc[nH]4)C(F)(F)F)cs3)CC2)cc1` was tested, and the Activity was “inactive”.
In the case of `C=CCOC(=O)NCCSc1nc2ccc(NC(=O)c3cc(NC(C)=O)cc(NC(C)=O)c3)cc2s1`, the Activity is reported as “inactive”.
`C=CCOC(=O)NCCSc1nc2ccc(NC(=O)c3c(C)noc3C)cc2s1` was tested, and the Activity was “inactive”.
For `O=C(NNC(=O)[C@H]1CCCNC1=O)c1csc(C2CCN(C(=O)NCCC3=CCCCC3)CC2)n1`, the Activity was “inactive”.
With `C#CC[C@H](NC(C)=O)C(=O)Nc1ccc2nc(SCCNC(=O)OCC=C)sc2c1` the Activity was “inactive”.
In the case of `C=CCOC(=O)NCCSc1nc2ccc(NC(=O)c3cccc(C#N)c3)cc2s1`, the Activity is reported as “inactive”.
With `O=C(NCC(=O)N1CCC2(CC1)CCN(C(=S)NC[C@@H]1CCCO1)C2)c1ccco1` the Activity was “inactive”.
`CCCCNS(=O)(=O)c1cccc(NC(=O)CNC(=O)c2ccoc2)c1` was tested, and the Activity was “inactive”.
In the case of `N#Cc1c(Cl)cccc1Oc1ccc(S(=O)(=O)Nc2ccc(S(=O)(=O)Nc3ccccn3)cc2)cc1`, the Activity is reported as “inactive”.
`C=CCOC(=O)NCCSc1nc2ccc(NC(=O)CCn3c(=O)oc4ccccc43)cc2s1` was tested, and the Activity was “inactive”.
`C=CCOC(=O)NCCSc1nc2ccc(NC(=O)/C=C/c3ccc([N+](=O)[O-])o3)cc2s1` was tested, and the Activity was “inactive”.
With `Cc1ccc(C(=O)Nc2nnc(C(C)(C)C)s2)c(C2CCN(C(=O)c3nc4ccccc4nc3O)CC2)n1` the Activity was “inactive”.
For `CCOC(=O)NNC(=O)c1csc(C2CCN(C(=O)Cc3c[nH]c4ccccc34)CC2)n1`, the Activity was “inactive”.
For `C=CCOC(=O)NCCSc1nc2ccc(NC(=O)c3c([N+](=O)[O-])c(C)nn3C)cc2s1`, the Activity was “inactive”.
`CN(C)c1ccc(NC(=S)N2CCC(c3nc(C(=O)NC[C@@H]4COc5ccccc5O4)cs3)CC2)cc1` was tested, and the Activity was “inactive”.
With `C=CCOC(=O)NCCSc1nc2ccc(NC(=O)c3ccc([N+](=O)[O-])cc3F)cc2s1` the Activity was “inactive”.
With `CN(C)c1ccc(NC(=S)N2CCC(c3nc(C(=O)NCCc4c[nH]c5ccc(F)cc45)cs3)CC2)cc1` the Activity was “inactive”.
For `Cc1ccc(C(=O)NCCc2c[nH]c3ccccc23)c(C2CCN(C(=O)c3ccc(NC(N)=S)cc3)CC2)n1`, the Activity was “inactive”.
`COc1ccccc1NC(=O)N1CCC2(CC1)CCN(S(=O)(=O)c1sc(NC(C)=O)nc1C)C2` was tested, and the Activity was “inactive”.
`C=CCOC(=O)NCCSc1nc2ccc(NC(=O)C(C)(C)n3cncn3)cc2s1` was tested, and the Activity was “inactive”.
For `C=CCOC(=O)NCCSc1nc2ccc(NC(=O)CS(=O)(=O)c3ccc(C)cc3)cc2s1`, the Activity was “inactive”.
For `C=CCOC(=O)NCCSc1nc2ccc(NC(=O)Cc3nc(C)sc3C)cc2s1`, the Activity was “inactive”.
In the case of `CC(=O)Nc1ccc(O)c(C(=O)N2CCC(c3nc(C)ccc3C(=O)NCCc3cccs3)CC2)c1`, the Activity is reported as “inactive”.
In the case of `C=CCOC(=O)NCCSc1nc2ccc(NC(=O)CNC(=O)OC)cc2s1`, the Activity is reported as “inactive”.
With `CCOC(=O)c1nc(NC(=O)c2csc(C3CCN(C(=O)NCCC4=CCCCC4)CC3)n2)cn1C` the Activity was “inactive”.
In the case of `CN(C)c1ccc(NC(=S)N2CCC(c3nc(C(=O)NCCOc4ccccc4Cl)cs3)CC2)cc1`, the Activity is reported as “inactive”.
With `COc1ccc(C(=O)CCC(=O)N2CCC(c3nc(C(=O)Nc4cc(C(N)=O)ccc4OC)cs3)CC2)cc1` the Activity was “inactive”.
For `C=CCOC(=O)NCCSc1nc2ccc(NC(=O)[C@H]3CCCN3C(=O)c3cccs3)cc2s1`, the Activity was “inactive”.
In the case of `O=C(CN1CCCN(C(=O)CNC(=O)c2ccco2)CC1)NCCc1ccccc1`, the Activity is reported as “inactive”.
`CCOc1ccccc1CNC(=O)c1ccc(C)nc1C1CCN(C(=O)/C=C/c2cccc(O)c2)CC1` was tested, and the Activity was “inactive”.
For `CC(C)(C)c1cc(O)nc(SCC(=O)N2CCCN(CC(=O)Nc3ccccc3C(C)(C)C)CC2)n1`, the Activity was “inactive”.
In the case of `COc1ccc(C(N)=O)cc1NC(=O)c1csc(C2CCN(C(=O)C#Cc3ccccc3)CC2)n1`, the Activity is reported as “inactive”.
For `O=C(COc1ccccc1)NNC(=O)c1csc(C2CCN(C(=O)NCCC3=CCCCC3)CC2)n1`, the Activity was “inactive”.
With `CC(=O)Nc1cccc(OCCCNC(=O)c2csc(C3CCN(C(=O)C4CCCCC4)CC3)n2)c1` the Activity was “inactive”.
With `Cc1cccc(C)c1NC(=O)CN1CCCN(C(=O)CNC(=O)c2ccco2)CC1` the Activity was “inactive”.
With `COc1ccc(C(N)=O)cc1NC(=O)c1csc(C2CCN(C(=O)c3cc(OC)c4ccccc4n3)CC2)n1` the Activity was “inactive”.

Same assay, conditions: concentration not given here
`C=CCOC(=O)NCCSc1nc2ccc(NC(=O)c3csnn3)cc2s1` showed an inhibition of 33%.
Compound `CC(=O)Nc1ccc(S(=O)(=O)NNC(=O)Nc2ccccc2-c2ccccc2)cc1Cl` has an inhibition of 24%.
Compound `COc1ccc(NC(C)=O)cc1NS(=O)(=O)c1ccc(NC(C)=O)cc1` has an inhibition of 18%.
`O=C(NCC(=O)N1CCC2(CC1)CCN(C(=O)Cc1n[nH]c(=O)c3ccccc13)C2)c1ccco1` was tested, and the inhibition was 18%.
Compound `C=CCOC(=O)NCCSc1nc2ccc(NC(=O)CSc3nc(C)cc(C)n3)cc2s1` has an inhibition of 19%.
`Cc1ccc(C(=O)NCCc2cc3ccccc3[nH]2)c(C2CCN(C(=O)CNC(=O)Nc3ccccc3)CC2)n1` was tested, and the inhibition was 6%.
`C=CCOC(=O)NCCSc1nc2ccc(NC(=O)[C@H]3CC(=O)c4ccccc43)cc2s1` was tested, and the inhibition was 11%.
In the case of `C=CCOC(=O)NCCSc1nc2ccc(NC(=O)CSc3ccccn3)cc2s1`, the inhibition is reported as 22%.

The compounds below were run against Protein-tyrosine kinase 2-beta (Homo sapiens) (UniProt Q14289) (assay: Inhibition of Pyk2-mediated stimulation of human SF767 glioma cell migration at 5 uM by radial migration assay relative to control). Conditions: not given.
With `C=CCOC(=O)NCCSc1nc2ccc(NC(=O)c3csnn3)cc2s1` the inhibition was 50%.
